From US9883998B2, “Methods for lightening skin using arbutin compositions” (OMP, Inc., priority 2007, dated 2018)

Columns and labels:
tyrosinase = tyrosinase (Homo sapiens, UniProt P14679); details: human melanocyte cultures; cited from earlier work
skin = assay: Skin lightening in volunteers by Minolta Chromameter b* parameter; assay type: in vivo, human; details: for dose dependence of skin lightening efficacy: 4% versus 7% arbutin in Examples 1 and 2 base formulas
From the text: Ten volunteers between the ages of 18 and 60 years of age enrolled in the study. Volunteers included in the study were of Asian or Caucasian descent with a Fitzpatrick phototype III or above. Enrolled subjects were free of any systemic or dermatologic disorder, including a known history of allergies or other medical conditions which, in the opinion of the Medical Investigator, could interfere with the conduct of the study, interpretation of results, or increase the risk of adverse reactions. Moreover, volunteers had no clinically significant abnormal findings, based on their medical history, which may have affected study participation as determined by the investigator. Impaneled female volunteers were not pregnant (as assessed with a urine pregnancy test at the start of the study and every 4 weeks thereafter) and agreed to use suitable contraceptive methods throughout the duration of the study. All volunteers were willing to refrain from using any medications, moisturizers, sunscreens, fragrances or new personal care products/laundry detergents on the back for the duration of the study and were also willing to avoid sun exposure, on the back (ie, sunbathing), as best as possible and refrain from using tanning booths for the study duration. Furthermore, subjects agreed to avoid swimming for the entire study.
All volunteers reported to the clinical site every day, excluding weekends, for application of study products in an open label, un-blinded fashion. Study products and dosing were as follows:
All subjects had 2 cm^2 squares demarcated on their backs, with a plastic template adhered to the skin, for identification of treatment sites. […]
The safety of the formulations of Example 1 and Example 2 was assessed via Repeated Insult Patch Testing on 49 volunteers, in a separate study. All products used in the study presented herein were evaluated for safety through investigator scoring of the application sites at baseline, 4- and 8-weeks. […] Skin lightening was assessed via use of the Minolta CR-300 Chromameter® at baseline, 4- and 8-weeks. […]

Sequence of tyrosinase (P14679 19-529): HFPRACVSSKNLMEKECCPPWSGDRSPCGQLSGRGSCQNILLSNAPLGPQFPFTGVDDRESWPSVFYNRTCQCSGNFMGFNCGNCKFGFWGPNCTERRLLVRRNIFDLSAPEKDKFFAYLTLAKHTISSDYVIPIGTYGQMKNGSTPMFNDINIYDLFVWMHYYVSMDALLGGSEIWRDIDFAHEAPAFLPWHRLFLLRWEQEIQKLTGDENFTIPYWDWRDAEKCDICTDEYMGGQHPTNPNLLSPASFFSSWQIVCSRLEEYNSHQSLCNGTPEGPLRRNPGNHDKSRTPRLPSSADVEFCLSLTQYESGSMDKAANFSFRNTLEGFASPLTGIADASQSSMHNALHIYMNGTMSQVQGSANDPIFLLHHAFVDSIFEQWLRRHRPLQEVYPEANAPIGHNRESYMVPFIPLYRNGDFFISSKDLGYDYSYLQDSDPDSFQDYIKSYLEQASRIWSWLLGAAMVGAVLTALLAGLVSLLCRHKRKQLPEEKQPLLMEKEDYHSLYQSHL

For `OC[C@H]1O[C@@H](Oc2ccc(O)cc2)[C@H](O)[C@@H](O)[C@@H]1O` [Arbutin, hydroxy phenyl-b-D-glucopyranoside], the “tyrosinase inhibiting potency relative to hydroquinone” value (tyrosinase) is given as “one-hundredth that of hydroquinone”, the “dose dependence of skin lightening efficacy” value (skin) is given as “dose dependent” and the “dose dependence of skin lightening efficacy” value (skin; listed as arbutin) is given as “dose dependant”. The “skin lightening efficacy of 7% arbutin versus 4% hydroquinone” value (skin; 7% arbutin, relatively non-photoexposed skin, formulas similar to bleaching and correcting cream and Blender bases) was “equally as efficacious as 4% hydroquinone”.
